Data on 3 compounds can be found in US10113968B2, “Specific detection and quantification of cardiolipin and isolated mitochondria by positively charged AIE fluorogens and method of manufacturing thereof” (priority 2013, dated 2018).

The nature of data set [1]: Fluorescence response of dye to CL-containing (TOCL/DOPC) and CL-free (DOPC) LUVs. Particulars: for emission with CL-containing vesicles: TOCL/DOPC 1:1, 25 mM HEPES pH 7.4, λex=350 nm. The method, then:
CL-containing vesicles are composed of TOCL/DOPC (1:1 molar ratio), and CL-free vesicles are composed of pure DOPC, respectively, in a 25 mM HEPES buffer at pH 7.4. [dye]=10 μM; [lipid]total=22 μM; λex=350 nm.
FIG. 3A is a plot of the fluorescence enhancement (I/I0−1) of TTAPE-Me at 480 nm with CL-containing and CL-free vesicles.
FIG. 3B is the linear region of the I/I0−1 value versus CL concentration. [dye]=10 μM; λex=350 nm.
FIG. 4B is a plot of the fluorescence enhancement at 480 nm versus CL content. [dye]=10 μM; [lipid]total=22 μM; λex=350 nm.
CL-containing and CL-free vesicles are composed of TOCL/DOPC (1:1 molar ratio) and pure DOPC, respectively, in a 25 mM HEPES buffer at pH 7.4. [dye]=10 μM; [lipid]total=22 μM; λex=350 nm.
The fluorescence enhancement (I/I0−1) of TTAPE-Me at 480 nm is in a linear fashion in the CL concentration of 0-10 μM (FIG. 3B), which lies in the physiological range of CL in mitochondrial membrane. Linear detection of CL can also be obtained with the varying content of TOCL (2-50% TOCL) in the vesicles (FIG. 4A-4B). The results imply that flexible TTAPE-Me to CL ratio is allowed in the detection and quantification of CL. In contrast, conventional NAO requires strict 2:1 ratio of NAO/CL for quantitative measurement. Moreover, the detection of CL can be done immediately upon mixing the vesicles with the probe without any extra treatment.
To determine whether TTAPE-Me can specifically detect CL, two types of large unilamellar vesicles (LUVs) 100-200 nm in diameter were prepared (FIG. 2A-2B). The CL-free vesicles were prepared by pure 1,2-dioleoyl-sn-glycero-[…] (DOPC), which is the most abundant phospholipid in eukaryotic membranes. CL-containing vesicles were fabricated by the mixture of 1,1′,2,2′-tetraoleoyl cardiolipin (TOCL) and DOPC, in which the zwitterionic DOPC is used to stabilize the vesicles.

Data set [2] is described as follows: Fluorescence response to vesicles of different single mitochondrial lipids. To be noted: 20% TOCL, 100% DOPC, 40% DPPE, 2% soy PI, 1% DOPS, 2% SM, rest DOPC; [dye]=10 μM; [lipid]total=22 μM. The procedure: (§1) Emission spectra of (C) TTAPE-Me and (D) NAO with CL-containing and CL-free all-component vesicles are shown. (E) Bar chart of the change in fluorescence intensity shown in panels C and D (red: CL-containing vesicles, blue: CL-free vesicles). [dye]=10 μM; [lipid]total=22 μM; for TTAPE-Me: λex=350 nm and λem=480 nm; for NAO: λex=499 nm and λem=530 nm.
To further evaluate the specificity of TTAPE-Me towards CL, the response of TTAPE-Me to other major lipids found on mitochondrial membranes was examined. The other major lipids evaluated were 1,2-dipalmitoleoyl-sn-glycero-3-phosphoethanolamine (DPPE):
Six different types of LUVs were fabricated and were composed of each of the above lipids and TOCL and DOPC at the exact percentage as mitochondrial membrane, with the remaining percentage of each type of LUV filled by DOPC.
While DOPS and PI are also negatively charged, they carry only one charge per molecule and share only 1% and 2% of the total mitochondrial membrane lipids, respectively (CL for ˜20%).

The nature of data set [3]: Fluorescence response to CL-containing and CL-free all-component LUVs. To be noted: [dye]=10 μM. The procedure: as §1
Meanwhile, to mimic the mitochondrial membranes, CL-containing and CL-free all-component LUVs were prepared. The CL-containing and CL-free all-component LUVs were composed by the mixture of all the above mentioned lipids at their physiological ratios (FIG. 9A-9B). […] With the CL-containing LUVs, the greenish-blue fluorescence is enhanced by over 3-fold (FIGS. 7C & E). Parallel experiments were conducted with NAO as the probe. NAO is a turn-off sensor whose fluorescence is decreased in the presence of CL (FIG. 7D). However, CL is not the only lipid that induces the decrease of NAO signals—other lipids such as DPPE, PI, or DOPS, can also induce the decrease of NAO signals to a large extent (FIG. 7B).

The conditions of data set [4]: background statement; cited from earlier work.
Data set [5] can be described thus: Isothermal titration calorimetry (ITC) of CL-containing vesicles with TTAPE-Me. The data set is classed as binding. To be noted: 25° C., CL-containing vesicles TOCL/DOPC 1:1, curve fitting, read-out: dissociation constant. The procedure: [dye]=10 μM; [lipid]total=22 μM; λex=350 nm. (B) Job plot for determination of the binding stoichiometry of TTAPE-Me to CL-containing vesicles. The total concentration of TTAPE-Me and CL is kept at 20 μM. (C) calorimetric curves for titration of CL-containing vesicles with serial injections of TTAPE-Me at 25° C. (D) Binding isotherm as a function of [TTAPE-Me]/[lipid]total molar ratio. CL-containing vesicles are composed of TOCL and DOPC (1:1 molar ratio).
According to the AIE principle, TTAPE-Me is only fluorescent when bound, and thus the fluorescence can report the binding of TTAPE-Me to CL-containing vesicles. The emission intensity varying ratios of TTAPE-Me to CL-containing LUVs is then recorded and correlated to a Job plot (FIG. 5B). The plot has a peak at ˜0.67, corresponding to a 2:1 binding ratio for TOCL to TTAPE-Me. The binding ratio perfectly matches the charge ratio, providing further support that the binding of TTAPE-Me towards CL is primarily driven by electrostatic interaction. […] The binding curve was generated by integration of the area of each injection peak followed by the subtraction of the dilution heat of dye molecules (FIG. 5D).

The test system of the next data set is pUC 18 DNA, 2686 bp. Description: Fluorescence of TTAPE-Me in the presence of plasmid DNA. To be noted: wide range of DNA concentrations; [dye]=10 μM; λex=350 nm. The method, then: (TTAPE-Me with CL-containing LUVs is shown for comparison) [dye]=10 μM; λex=350 nm.
On the other hand, one might think that the negatively charged mitochondrial DNA (mtDNA) may interfere with the detection of CL by TTAPE-Me.

Another data set concerns isolated mitochondria. Description: Quantification and staining of isolated yeast mitochondria by fluorescence. Particulars: SEM buffer pH 7.2; [dye]=10 μM; λex=350 nm; emission at 480 nm. Also on record: species or system S. cerevisiae strain YPH 500. An excerpt:
Individual mitochondria from S. cerevisiae strain YPH 500 have been isolated and calibrated by Biuret test. […] In contrast, time-consuming and intricate procedures are involved when using NAO for the quantification of isolated mitochondria. The isolated mitochondria are fixed by formaldehyde, followed by multiple rinsing, centrifugation and resuspension steps. Further, the signal-to-noise ratio by using NAO is much smaller, likely due to the strong background of NAO in solution.

[6] abbreviates: [dye]=10 μM, [lipid]total=22 μM.

pKd: −log10 of the molar value.

For `O=S(=O)([O-])CCCOc1ccc(/C(=C(\c2ccccc2)c2ccc(OCCCS(=O)(=O)[O-])cc2)c2ccccc2)cc1.[Na+].[Na+]` [BSPOTPE, reference compound], the “emission with CL-containing vesicles” value in data set [1] (setting [6]) is “no remarkable fluorescence enhancement”.

Take `CCCCCCCCC[n+]1c2cc(N(C)C)ccc2cc2ccc(N(C)C)cc21.[Br-]` [NAO, 10-N-nonyl acridine orange, reference compound]: the “fluorescence response to vesicles of different lipid contents (selectivity)” value in data set [2] is given as “poor selectivity”. In addition, in data set [3] (λex=499 nm, λem=530 nm), the “fluorescence in the presence of CL (all-component LUVs)” value is reported as “decreased”. The water-solubility result in data set [4] is reported as “poor water-solubility”.

For the compound `C[N+](C)(C)CCOc1ccc(C(=C(c2ccc(OCC[N+](C)(C)C)cc2)c2ccc(OCC[N+](C)(C)C)cc2)c2ccc(OCC[N+](C)(C)C)cc2)cc1.[Br-].[Br-].[Br-].[Br-]` [TTAPE-Me, 1,1,2,2-tetrakis[4-(2-trimethylammonio-ethoxy)phenyl]ethene tetrabromide], in data set [5], the pKd is 5.68. Moreover, in data set [1] (setting [6]), the “emission with CL-containing vesicles” value is “turned on” and the “fluorescence with CL-containing vesicles on increase of NaCl concentration” value is reported as “diminishes”. Also, in data set [1] (pure DOPC vesicles, increasing total lipid concentration), the “emission with CL-free vesicles” value was “remains rather weak”. In data set [2], the “fluorescence response to vesicles of different lipid contents (selectivity)” value was “selectively turned on with the TOCL vesicles”. In addition, the “emission spectrum with CL-free all-component LUVs” value in data set [3] ([lipid]total=22 μM) is listed as “remains identical to that of the free dye in buffer”. Besides, the “fluorescence enhancement with CL-containing all-component LUVs” value in data set [3] ([lipid]total=22 μM, λex=350 nm, λem=480 nm) was “over 3 fold”. The “fluorescence in the presence of plasmids” value in the data set on pUC 18 DNA, 2686 bp is given as “no fluorescence enhancement”. In addition, the “relation of fluorescence intensity to mitochondria concentration” value in the data set with isolated mitochondria is “linear relationship”.
